Measurements reported in PubChem BioAssay AID743436 (The Scripps Research Institute Molecular Screening Center, 2014).
The source made the active and inactive calls. The rule behind the calls is not given here.

System: S1PR3 cell line viability, luminescence counterscreen
Assay: cytotoxicity of test compounds, late-stage follow-up, cytotoxicity control for S1PR3 antagonist project, cell-based, luminescence (AID 743436)

SMILES | CC50
O=C(NC(c1ccccc1)c1nc(-c2ccccc2)no1)c1ccc(Cl)c(Cl)c1 (stereo unspecified) | > 28.2 µM (inactive)
COc1ccc(C(=O)NC(c2ccccc2)c2nc(-c3ccccc3)no2)cc1 (stereo unspecified) | > 28.2 µM (inactive)
O=C(NC(c1ccc(Cl)cc1)c1nc(-c2ccccc2)no1)c1cccc(Cl)c1 (stereo unspecified) | > 28.2 µM (inactive)
O=C(NC(c1nc(-c2ccccc2)no1)C1CCCCC1)c1ccc(Cl)c(Cl)c1 (stereo unspecified) | > 28.2 µM (inactive)
Cc1ccc(C(NC(=O)c2cccc(Cl)c2)c2nc(-c3ccccc3)no2)cc1 (stereo unspecified) | > 28.2 µM (inactive)
O=C(NC(c1ccccc1)c1nc(-c2ccccc2)no1)c1cccc(Cl)n1 (stereo unspecified) | > 28.2 µM (inactive)
O=C(Nc1ccc(Cl)c(Cl)c1)NC(c1ccccc1)c1nc(-c2ccccc2)no1 (stereo unspecified) | 7.7 µM
O=C(NC(c1ccc(Cl)cc1)c1nc(-c2cccc(Cl)c2)no1)c1cccc(Cl)c1 (stereo unspecified) | > 28.2 µM (inactive)
O=C(NC(c1ccc(Cl)c(Cl)c1)c1nc(-c2ccccc2)no1)c1ccccc1 (stereo unspecified) | 24.7 µM (inactive)
Cc1ccc(C(=O)NC(c2ccccc2)c2nc(-c3ccccc3)no2)cc1 (stereo unspecified) | > 28.2 µM (inactive)
O=C(NC(c1ccc(Br)cc1)c1nc(-c2ccccc2)no1)c1ccc(Cl)c(Cl)c1 (stereo unspecified) | > 28.2 µM (inactive)
O=C(NC(c1ccc(Cl)c(Cl)c1)c1nc(-c2ccccc2)no1)c1ccc(Cl)cc1 (stereo unspecified) | > 28.2 µM (inactive)
O=C(NC(c1ccc(Cl)cc1)c1nc(-c2ccccc2)no1)c1cccc(Br)c1 (stereo unspecified) | > 28.2 µM (inactive)
O=C(c1cccc(Cl)c1)N(CCO)C(c1ccc(Cl)c(Cl)c1)c1nc(-c2ccccc2)no1 (stereo unspecified) | > 28.2 µM (inactive)
O=C(NC(c1ccccc1)c1nc(-c2ccccc2)no1)c1cccc(Cl)c1 (stereo unspecified) | > 28.2 µM (inactive)
O=C(NC(c1ccc(Cl)cc1)c1nc(-c2ccccc2)no1)c1ccc(Cl)c(Cl)c1 (stereo unspecified) | > 28.2 µM (inactive)

SMILES | CC50
O=C(NC(Cc1ccccc1)c1nc(-c2ccccc2)no1)c1cccc(Cl)c1 (stereo unspecified) | > 28.2 µM (inactive)
O=C(NC(c1ccc(Cl)c(Cl)c1)c1nc(-c2ccccc2)no1)c1ccc(Cl)c(Cl)c1 (stereo unspecified) | > 28.2 µM (inactive)
N#Cc1ccc(C(=O)NC(c2ccc(Cl)c(Cl)c2)c2nc(-c3ccccc3)no2)cc1 (stereo unspecified) | > 28.2 µM (inactive)
O=C(NC(c1ccccc1)c1nc(-c2ccccc2)no1)c1cccc(Br)c1 (stereo unspecified) | > 28.2 µM (inactive)
O=C(NC(c1ccc(Cl)cc1)c1nc(-c2ccccn2)no1)c1cccc(Cl)c1 (stereo unspecified) | > 28.2 µM (inactive)
CCc1ccc(C(NC(=O)c2cccc(Cl)c2)c2nc(-c3ccccc3)no2)cc1 (stereo unspecified) | > 28.2 µM (inactive)
O=C(NC(c1ccc(Cl)cc1)c1nc(-c2ccccc2)no1)c1ccc(Cl)c(Br)c1 (stereo unspecified) | > 28.2 µM (inactive)
O=C(NC(c1ccccc1)c1nc(-c2ccccc2)no1)c1ccc(Cl)cc1 (stereo unspecified) | > 28.2 µM (inactive)
O=C(NC(c1cccc(Cl)c1)c1nc(-c2ccccc2)no1)c1ccc(Cl)c(Cl)c1 (stereo unspecified) | > 28.2 µM (inactive)
O=C(Cc1ccc(Cl)c(Cl)c1)NC(c1ccccc1)c1nc(-c2ccccc2)no1 (stereo unspecified) | > 28.2 µM (inactive)
Clc1ccc(CNC(c2ccccc2)c2nc(-c3ccccc3)no2)cc1Cl (stereo unspecified) | > 28.2 µM (inactive)
O=C(NC(c1nc(-c2ccccc2)no1)C1CCOCC1)c1ccc(Cl)c(Cl)c1 (stereo unspecified) | > 28.2 µM (inactive)
O=C(NC(c1ccc(Cl)c(Cl)c1)c1nc(-c2ccccc2)no1)c1cccc(Cl)c1 (stereo unspecified) | > 28.2 µM (inactive)
O=C(NC(c1cccc(Cl)c1)c1nc(-c2ccccc2)no1)c1cccc(Cl)c1 (stereo unspecified) | > 28.2 µM (inactive)
O=C(NC(c1cccc(Cl)c1)c1nc(-c2ccccc2)no1)c1cc(Cl)cc(Cl)c1 (stereo unspecified) | > 28.2 µM (inactive)
